Data reported in ChEMBL document CHEMBL3414489, “3,4-Diaza-bicyclo[4.1.0]hept-4-en-2-one phenoxypropylamine analogs of irdabisant (CEP-26401) as potent histamine-3 receptor inverse agonists with robust wake-promoting activity” (Eur J Med Chem, 2015).
The source made the active and inactive calls. The calls are words filed in the database; no cut-off is given here.

How the values were obtained:
[1] = Cmax in dog at 3 mg/kg, po; format: ADME, organism-based, Canis lupus familiaris; set-up: dose 3 mg/kg, route oral; details: in vivo
[2] = Half life in monkey liver microsomes; format: ADME, Macaca mulatta; details: rhesus monkey
[3] = Oral bioavailability in monkey at 3 mg/kg; format: ADME, organism-based, Macaca mulatta; details: rhesus monkey, in vivo
[4] = Ratio of drug level in brain to plasma in rat at 10 mg/kg, ip after 2 hrs; format: ADME, organism-based; set-up: dose 10 mg/kg, route intraperitoneal; details: read-out: BPR
Rattus norvegicus [5] = test: Wake promoting activity in ip dosed rat EEG/EMG model; format: functional, organism-based
[6] = Cmax in rat at 10 mg/kg, po; format: ADME, organism-based; set-up: dose 10 mg/kg, route oral; details: in vivo
Rattus norvegicus [7] = test: Wake promoting activity in rat EEG/EMG model assessed as recovery from sleep at 3 to 30 mg/kg, ip after 22 hrs relative to vehicle-treated control; format: functional, organism-based
Histamine H1 receptor = Histamine H1 receptor (Homo sapiens, UniProt P35367); test: Inhibition of human H1R
Sequence of Histamine H1 receptor (P35367 whole entry): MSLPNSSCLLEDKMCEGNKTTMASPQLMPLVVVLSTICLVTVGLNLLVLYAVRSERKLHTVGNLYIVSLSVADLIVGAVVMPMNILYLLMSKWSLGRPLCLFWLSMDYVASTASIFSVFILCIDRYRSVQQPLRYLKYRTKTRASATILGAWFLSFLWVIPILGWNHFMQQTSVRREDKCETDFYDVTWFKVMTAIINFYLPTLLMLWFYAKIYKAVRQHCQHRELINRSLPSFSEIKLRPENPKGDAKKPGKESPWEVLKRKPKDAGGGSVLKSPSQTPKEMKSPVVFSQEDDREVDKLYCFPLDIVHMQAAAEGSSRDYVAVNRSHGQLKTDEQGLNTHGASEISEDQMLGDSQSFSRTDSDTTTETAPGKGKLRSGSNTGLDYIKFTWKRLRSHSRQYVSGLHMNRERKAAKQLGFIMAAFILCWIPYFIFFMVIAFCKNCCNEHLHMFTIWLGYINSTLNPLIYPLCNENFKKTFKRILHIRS

Canis familiaris [8] = test: Oral bioavailability in dog at 3 mg/kg; format: ADME, organism-based, Canis lupus familiaris; details: in vivo
[9] = target: Sodium-dependent dopamine transporter (Homo sapiens, UniProt Q01959); test: Inhibition of DAT (unknown origin)
Sequence of Sodium-dependent dopamine transporter (Q01959 whole entry): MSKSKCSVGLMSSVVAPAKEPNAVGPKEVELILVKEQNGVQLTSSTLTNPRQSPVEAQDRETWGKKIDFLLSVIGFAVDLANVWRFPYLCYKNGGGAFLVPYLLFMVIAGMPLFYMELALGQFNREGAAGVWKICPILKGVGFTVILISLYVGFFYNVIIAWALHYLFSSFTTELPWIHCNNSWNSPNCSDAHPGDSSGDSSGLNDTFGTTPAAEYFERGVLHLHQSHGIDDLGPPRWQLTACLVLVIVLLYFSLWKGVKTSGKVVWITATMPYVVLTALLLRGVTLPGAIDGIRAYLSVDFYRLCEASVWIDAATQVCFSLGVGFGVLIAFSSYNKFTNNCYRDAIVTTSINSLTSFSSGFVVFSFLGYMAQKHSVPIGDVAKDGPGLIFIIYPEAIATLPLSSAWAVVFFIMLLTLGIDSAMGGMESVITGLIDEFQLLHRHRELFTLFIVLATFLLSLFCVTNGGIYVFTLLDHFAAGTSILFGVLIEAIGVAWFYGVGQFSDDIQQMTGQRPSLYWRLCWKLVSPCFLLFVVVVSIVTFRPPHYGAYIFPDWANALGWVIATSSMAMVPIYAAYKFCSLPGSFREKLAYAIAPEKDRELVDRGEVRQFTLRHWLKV

[10] = AUC (0 to t) in monkey at 3 mg/kg, po; format: ADME, organism-based, Macaca mulatta; set-up: dose 3 mg/kg, route oral; details: rhesus monkey, plasma
[11] = Aqueous solubility of the compound at pH 7.4; format: physicochemical
[12] = Permeability across human Caco2 cells; format: ADME, cell-based; details: Caco-2
[13] = Half life in rat liver microsomes; format: ADME
[14] = Cmax in monkey at 3 mg/kg, po; format: ADME, organism-based, Macaca mulatta; set-up: dose 3 mg/kg, route oral; details: rhesus monkey, in vivo
[15] = Plasma protein binding in rat; format: ADME, cell-free; details: read-out: PPB (converted)
[16] = Volume of distribution at steady state in rat at 1 mg/kg, iv; format: ADME, organism-based; set-up: dose 1 mg/kg, route intravenous; details: in vivo, read-out: Vdss
[17] = AUC (0 to t) in rat at 10 mg/kg, po; format: ADME, organism-based; set-up: dose 10 mg/kg, route oral; details: plasma
[18] = Plasma protein binding in dog; format: ADME, cell-free, Canis lupus familiaris; details: read-out: PPB (converted)
Cytochrome P450 1A2 = target: T1, Cytochrome P450 1A2 (Homo sapiens, UniProt P05177); test: Inhibition of CYP1A2 (unknown origin); format: ADME
T1 sequence (P05177 whole entry): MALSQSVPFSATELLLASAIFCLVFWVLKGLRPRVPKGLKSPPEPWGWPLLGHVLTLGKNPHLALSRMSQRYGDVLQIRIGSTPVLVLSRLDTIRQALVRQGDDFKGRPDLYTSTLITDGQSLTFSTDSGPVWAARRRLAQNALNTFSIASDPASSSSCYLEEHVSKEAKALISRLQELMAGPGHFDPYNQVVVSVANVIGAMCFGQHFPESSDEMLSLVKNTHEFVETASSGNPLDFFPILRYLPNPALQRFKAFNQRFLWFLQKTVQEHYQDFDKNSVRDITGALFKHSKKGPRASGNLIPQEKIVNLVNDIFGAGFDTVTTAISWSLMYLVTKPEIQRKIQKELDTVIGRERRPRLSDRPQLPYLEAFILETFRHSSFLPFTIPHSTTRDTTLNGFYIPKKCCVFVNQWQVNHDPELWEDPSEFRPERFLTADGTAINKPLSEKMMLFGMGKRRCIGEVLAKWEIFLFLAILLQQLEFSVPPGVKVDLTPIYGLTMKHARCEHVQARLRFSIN

Rattus norvegicus [19] = test: Toxicity in po dosed rat; format: organism-based; details: in vivo
[20] = Half life in rat at 1 mg/kg, iv; format: ADME, organism-based; set-up: dose 1 mg/kg, route intravenous; details: in vivo
[21] = Clearance in rat at 1 mg/kg, iv; format: ADME, organism-based; set-up: dose 1 mg/kg, route intravenous; details: in vivo
Histamine H3 receptor [22] = target: T2, Histamine H3 receptor (Homo sapiens, UniProt Q9Y5N1); test: Binding affinity to human histamine H3 receptor
T2 sequence (Q9Y5N1 whole entry): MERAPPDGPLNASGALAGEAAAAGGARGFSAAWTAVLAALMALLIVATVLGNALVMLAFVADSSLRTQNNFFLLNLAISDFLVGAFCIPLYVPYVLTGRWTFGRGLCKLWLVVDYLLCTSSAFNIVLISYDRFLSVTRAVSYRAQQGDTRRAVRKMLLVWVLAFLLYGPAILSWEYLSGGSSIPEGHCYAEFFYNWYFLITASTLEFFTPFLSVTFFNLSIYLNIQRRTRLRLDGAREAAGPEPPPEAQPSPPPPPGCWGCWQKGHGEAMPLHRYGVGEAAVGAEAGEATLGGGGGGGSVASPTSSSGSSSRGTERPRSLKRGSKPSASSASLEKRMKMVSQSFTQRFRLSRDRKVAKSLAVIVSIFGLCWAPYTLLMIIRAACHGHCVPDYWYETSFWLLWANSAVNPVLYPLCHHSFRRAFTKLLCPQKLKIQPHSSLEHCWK

[23] = Half life in dog at 1 mg/kg, iv; format: ADME, organism-based, Canis lupus familiaris; set-up: dose 1 mg/kg, route intravenous; details: in vivo
[24] = Ratio of drug level in brain to plasma in dog at 10 mg/kg, ip after 2 hrs; format: ADME, organism-based, Canis lupus familiaris; set-up: dose 10 mg/kg, route intraperitoneal; details: read-out: BPR
[25] = Volume of distribution at steady state in monkey at 1 mg/kg, iv; format: ADME, organism-based, Macaca mulatta; set-up: dose 1 mg/kg, route intravenous; details: rhesus monkey, in vivo, read-out: Vdss
Rattus norvegicus [26] = species on record: Rattus norvegicus; test: Inhibition of RAMH-induced dipsogenia in rat; format: functional
Rattus norvegicus [27] = test: Toxicity in rat at 3 to 30 mg/kg, ip; format: organism-based; set-up: dose 3-30 mg/kg, route intraperitoneal; details: in vivo
[28] = Oral bioavailability in rat at 10 mg/kg; format: ADME, organism-based; details: in vivo
[29] = Half life in mouse liver microsomes; format: ADME
Histamine H3 receptor [30] = target: T2, Histamine H3 receptor; test: Inverse agonist activity at human H3R expressed in CHO cells assessed as inhibition of RAMH-induced [35S]GTPgammaS binding relative to control; format: functional, cell-based
Canis familiaris [31] = test: AUC (0 to t) in dog at 3 mg/kg, po; format: ADME, organism-based, Canis lupus familiaris, Plasma; set-up: dose 3 mg/kg, route oral; details: in vivo
[32] = Clearance in monkey at 1 mg/kg, iv; format: ADME, organism-based, Macaca mulatta; set-up: dose 1 mg/kg, route intravenous; details: rhesus monkey, in vivo
[33] = Plasma protein binding in human; format: ADME, cell-free; details: read-out: PPB (converted)
[34] = target: T3, Alpha-2C adrenergic receptor (Homo sapiens, UniProt P18825); test: Inhibition of alpha-2C adrenergic receptor (unknown origin)
T3 sequence (P18825 whole entry): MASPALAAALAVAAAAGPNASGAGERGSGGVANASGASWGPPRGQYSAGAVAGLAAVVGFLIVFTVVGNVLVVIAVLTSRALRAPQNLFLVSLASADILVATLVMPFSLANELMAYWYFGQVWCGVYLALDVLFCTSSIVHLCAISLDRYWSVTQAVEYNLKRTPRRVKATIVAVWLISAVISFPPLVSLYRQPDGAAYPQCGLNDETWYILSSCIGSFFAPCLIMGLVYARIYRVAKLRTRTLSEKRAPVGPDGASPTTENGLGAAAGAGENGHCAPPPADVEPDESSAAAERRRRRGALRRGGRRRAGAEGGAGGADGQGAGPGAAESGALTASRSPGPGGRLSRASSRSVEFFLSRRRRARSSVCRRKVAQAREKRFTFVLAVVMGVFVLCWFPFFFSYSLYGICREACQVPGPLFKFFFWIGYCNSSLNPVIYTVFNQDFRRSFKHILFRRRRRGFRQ

[35] = Half life in monkey at 1 mg/kg, iv; format: ADME, organism-based, Macaca mulatta; set-up: dose 1 mg/kg, route intravenous; details: rhesus monkey, in vivo
[36] = Aqueous solubility of the compound at pH 2; format: physicochemical
Rattus norvegicus [37] = test: Wake promoting activity in rat EEG/EMG model assessed as AUC of cumulative wake at 3 mg/kg, ip up to 4 hrs relative to vehicle-treated control; format: functional, organism-based; set-up: dose 3 mg/kg, time < 4 hr
Histamine H4 receptor = Histamine H4 receptor (Homo sapiens, UniProt Q9H3N8); test: Inhibition of human H4R
Sequence of Histamine H4 receptor (Q9H3N8 whole entry): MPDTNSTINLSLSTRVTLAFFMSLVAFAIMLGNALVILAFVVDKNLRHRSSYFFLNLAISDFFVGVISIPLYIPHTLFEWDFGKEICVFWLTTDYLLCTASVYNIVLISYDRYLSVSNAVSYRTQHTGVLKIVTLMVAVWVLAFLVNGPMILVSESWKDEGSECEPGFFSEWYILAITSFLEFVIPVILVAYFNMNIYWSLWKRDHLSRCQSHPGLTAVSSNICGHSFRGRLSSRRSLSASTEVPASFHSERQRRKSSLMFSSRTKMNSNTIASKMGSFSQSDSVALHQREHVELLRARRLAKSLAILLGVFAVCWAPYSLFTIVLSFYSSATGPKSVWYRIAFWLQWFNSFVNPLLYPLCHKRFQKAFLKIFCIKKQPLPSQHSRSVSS

Histamine H3 receptor [38] = target: Histamine H3 receptor (Rattus norvegicus, UniProt Q9QYN8); test: Binding affinity to rat histamine H3 receptor
Sequence of Histamine H3 receptor (Rattus norvegicus, UniProt Q9QYN8) (Q9QYN8 whole entry): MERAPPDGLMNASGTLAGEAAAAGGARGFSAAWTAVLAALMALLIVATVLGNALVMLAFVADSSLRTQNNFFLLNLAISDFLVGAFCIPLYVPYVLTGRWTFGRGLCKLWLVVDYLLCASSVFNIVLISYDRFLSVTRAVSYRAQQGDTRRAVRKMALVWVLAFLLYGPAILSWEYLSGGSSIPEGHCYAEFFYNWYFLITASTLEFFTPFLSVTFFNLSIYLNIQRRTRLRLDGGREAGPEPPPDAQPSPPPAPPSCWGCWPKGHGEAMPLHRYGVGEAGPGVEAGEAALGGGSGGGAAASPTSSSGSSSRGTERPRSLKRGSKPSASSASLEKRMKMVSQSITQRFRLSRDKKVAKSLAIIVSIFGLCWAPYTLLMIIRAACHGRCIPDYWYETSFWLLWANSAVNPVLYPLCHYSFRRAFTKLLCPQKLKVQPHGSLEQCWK

Rattus norvegicus [39] = species on record: Rattus norvegicus; details: 10 mg/kg
Rattus norvegicus [40] = test: Wake promoting activity in rat EEG/EMG model assessed as total time awake at 30 mg/kg, ip at 6.5 hrs relative to vehicle-treated control; format: functional; details: route intraperitoneal
[41] = Volume of distribution at steady state in dog at 1 mg/kg, iv; format: ADME, organism-based, Canis lupus familiaris; set-up: dose 1 mg/kg, route intravenous; details: in vivo, read-out: Vdss
[42] = Half life in human liver microsomes; format: ADME
Histamine H2 receptor = Histamine H2 receptor (Homo sapiens, UniProt P25021); test: Inhibition of human H2R
Sequence of Histamine H2 receptor (P25021 whole entry): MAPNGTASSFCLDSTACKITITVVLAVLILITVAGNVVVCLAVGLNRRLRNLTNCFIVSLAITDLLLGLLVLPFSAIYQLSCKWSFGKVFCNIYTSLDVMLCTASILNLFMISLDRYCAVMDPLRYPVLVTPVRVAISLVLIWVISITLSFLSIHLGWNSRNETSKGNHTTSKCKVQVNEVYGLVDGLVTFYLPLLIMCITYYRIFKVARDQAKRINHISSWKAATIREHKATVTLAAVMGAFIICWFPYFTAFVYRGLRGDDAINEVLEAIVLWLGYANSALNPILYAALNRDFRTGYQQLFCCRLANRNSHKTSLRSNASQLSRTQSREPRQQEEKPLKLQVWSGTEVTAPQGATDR

Rattus norvegicus [43] = test: Wake promoting activity in rat EEG/EMG model assessed as AUC of cumulative wake at 30 mg/kg, ip up to 5.5 hrs relative to vehicle-treated control; format: functional, organism-based; set-up: dose 30 mg/kg, time < 5.5 hr
[44] = Clearance in iv dosed rat; format: ADME, organism-based; details: in vivo
[45] = Half life in dog liver microsomes; format: ADME, Canis lupus familiaris
[46] = Half life in iv dosed rat; format: ADME, organism-based; details: in vivo
Cytochrome P450 3A4 = Cytochrome P450 3A4 (Homo sapiens, UniProt P08684); test: Inhibition of CYP3A4 (unknown origin); format: ADME
Sequence of Cytochrome P450 3A4 (P08684 whole entry): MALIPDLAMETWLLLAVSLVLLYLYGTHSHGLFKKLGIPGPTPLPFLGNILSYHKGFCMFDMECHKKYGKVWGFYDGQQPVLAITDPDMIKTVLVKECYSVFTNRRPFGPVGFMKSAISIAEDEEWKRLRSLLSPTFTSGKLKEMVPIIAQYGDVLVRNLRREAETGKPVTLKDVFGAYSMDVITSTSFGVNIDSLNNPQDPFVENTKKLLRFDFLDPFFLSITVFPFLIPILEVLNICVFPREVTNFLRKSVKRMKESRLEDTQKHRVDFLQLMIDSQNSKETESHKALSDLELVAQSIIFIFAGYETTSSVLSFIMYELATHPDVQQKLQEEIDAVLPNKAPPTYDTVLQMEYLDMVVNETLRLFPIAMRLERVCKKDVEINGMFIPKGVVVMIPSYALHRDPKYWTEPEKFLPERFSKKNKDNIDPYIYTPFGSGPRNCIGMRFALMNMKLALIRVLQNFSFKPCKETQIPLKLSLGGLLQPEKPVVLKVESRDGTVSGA

[47] = Oral bioavailability in rat; format: ADME, organism-based; details: in vivo
Cytochrome P450 2C19 = Cytochrome P450 2C19 (Homo sapiens, UniProt P33261); test: Inhibition of CYP2C19 (unknown origin); format: ADME
Sequence of Cytochrome P450 2C19 (P33261 whole entry): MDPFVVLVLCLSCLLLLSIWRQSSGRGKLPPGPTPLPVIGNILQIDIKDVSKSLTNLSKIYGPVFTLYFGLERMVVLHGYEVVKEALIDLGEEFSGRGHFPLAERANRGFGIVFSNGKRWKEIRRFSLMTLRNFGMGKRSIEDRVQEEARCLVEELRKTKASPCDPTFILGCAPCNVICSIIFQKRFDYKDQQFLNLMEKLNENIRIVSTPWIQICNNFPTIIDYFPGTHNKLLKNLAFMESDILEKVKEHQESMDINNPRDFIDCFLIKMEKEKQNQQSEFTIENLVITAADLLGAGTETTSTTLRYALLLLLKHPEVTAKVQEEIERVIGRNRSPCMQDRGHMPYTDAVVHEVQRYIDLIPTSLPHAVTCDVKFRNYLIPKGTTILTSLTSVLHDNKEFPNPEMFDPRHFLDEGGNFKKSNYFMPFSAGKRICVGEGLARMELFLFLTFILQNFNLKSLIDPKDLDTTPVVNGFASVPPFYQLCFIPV

Cytochrome P450 2D6 = Cytochrome P450 2D6 (Homo sapiens, UniProt P10635); test: Inhibition of CYP2D6 (unknown origin); format: ADME
Sequence of Cytochrome P450 2D6 (P10635 whole entry): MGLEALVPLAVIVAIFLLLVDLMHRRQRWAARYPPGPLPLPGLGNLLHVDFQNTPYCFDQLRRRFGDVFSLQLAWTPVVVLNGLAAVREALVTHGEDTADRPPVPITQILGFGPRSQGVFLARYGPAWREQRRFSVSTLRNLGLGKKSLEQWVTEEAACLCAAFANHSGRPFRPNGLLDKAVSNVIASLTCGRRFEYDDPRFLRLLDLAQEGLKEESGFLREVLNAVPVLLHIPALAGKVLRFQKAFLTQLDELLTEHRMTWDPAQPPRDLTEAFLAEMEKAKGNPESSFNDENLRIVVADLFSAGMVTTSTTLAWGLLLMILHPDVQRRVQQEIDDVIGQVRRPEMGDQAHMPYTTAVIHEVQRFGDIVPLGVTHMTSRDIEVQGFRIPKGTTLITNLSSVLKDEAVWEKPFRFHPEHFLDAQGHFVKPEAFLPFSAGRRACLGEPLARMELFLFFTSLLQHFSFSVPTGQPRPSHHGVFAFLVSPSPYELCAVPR

Cytochrome P450 2C9 = Cytochrome P450 2C9 (Homo sapiens, UniProt P11712); test: Inhibition of CYP2C9 (unknown origin); format: ADME
Sequence of Cytochrome P450 2C9 (P11712 whole entry): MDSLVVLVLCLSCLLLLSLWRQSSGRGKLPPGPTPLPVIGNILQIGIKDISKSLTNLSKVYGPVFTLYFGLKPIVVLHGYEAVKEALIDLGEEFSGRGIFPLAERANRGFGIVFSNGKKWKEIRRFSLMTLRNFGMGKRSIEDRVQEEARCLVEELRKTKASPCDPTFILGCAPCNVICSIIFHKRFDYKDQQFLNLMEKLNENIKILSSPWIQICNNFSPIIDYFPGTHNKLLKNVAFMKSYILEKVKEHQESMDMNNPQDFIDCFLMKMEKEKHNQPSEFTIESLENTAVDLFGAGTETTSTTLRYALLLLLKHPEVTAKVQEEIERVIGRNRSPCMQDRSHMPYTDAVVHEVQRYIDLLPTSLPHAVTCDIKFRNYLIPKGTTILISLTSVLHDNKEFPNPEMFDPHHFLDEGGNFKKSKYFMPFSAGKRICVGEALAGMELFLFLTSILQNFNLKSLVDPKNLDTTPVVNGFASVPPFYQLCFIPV

For `C[C@@H]1CCCN1CCCOc1ccc(C2=NNC(=O)[C@@H]3C[C@H]23)cc1`, the Cmax [1] was 664 ng/mL, the half-life [2] was > 40 min and the bioavailability [3] was 136%. For the same compound, the Kp at 2 h [4] was 2, the Activity (Rattus norvegicus [5]) was “Dose-dependent effect” and the Cmax [6] was 810 ng/mL. The Activity (Rattus norvegicus [7]) was “inactive”, the Ki (Histamine H1 receptor) was > 10 µM and the F (Canis familiaris [8]) was 115%. The Ki [9] was 10.2 µM, the AUC(0-t) [10] was 9570 ng·h/mL and the solubility [11] was > 4000 µg/mL. For the same compound, the Papp [12] was 17.5 ×10⁻⁶ cm/s, the half-life [13] was > 40 min and the Cmax [14] was 764 ng/mL. For the same compound, the fraction unbound [15] was 0.19, the Vd [16] was 0.9 L/kg and the AUC(0-t) [17] was 5760 ng·h/mL. The fraction unbound [18] was 0.4, the IC50 (Cytochrome P450 1A2) was > 30 µM and the Activity (Rattus norvegicus [19]) was “Non-toxic”. It also gave a half-life [20] of 66 min, a clearance [21] of 9.6 mL/min/kg and a Ki (Histamine H3 receptor [22]) of 0.0031 µM. The half-life [23] was 192 min, the Kp at 2 h [24] was 2.1 and the Vd [25] was 4 L/kg. For the same compound, the Activity (Rattus norvegicus [26]) was “Dose-dependent effect”, the ED50 (Rattus norvegicus [26]) was 0.14 mg/kg and the Activity (Rattus norvegicus [27]) was “Non-toxic”. For the same compound, the bioavailability [28] was 34%, the half-life [29] was > 40 min and the EC50 (Histamine H3 receptor [30]) was 0.0007 µM. It also gave an AUCt (Canis familiaris [31]) of 4205 ng·h/mL, a clearance [32] of 6 mL/min/kg and a fraction unbound [33] of 0.55. For the same compound, the Ki [34] was 1.5 µM, the half-life [35] was 462 min and the solubility [36] was > 4000 µg/mL. The AUC (Rattus norvegicus [37]) was 128 min, the Ki (Histamine H4 receptor) was > 10 µM and the Ki (Histamine H3 receptor [38]) was 0.0099 µM. The AUC (Rattus norvegicus [39]) was 158 min, the Time (Rattus norvegicus [40]) was 197 min and the Vd [41] was 3.7 L/kg. For the same compound, the half-life [42] was > 40 min, the Ki (Histamine H2 receptor) was > 10 µM and the AUC (Rattus norvegicus [43]) was 233 min.
With `Cc1cc(OCCCN2CCC[C@H]2C)ccc1C1=NNC(=O)C2CC12` (mixture of isomers) the Ki (Histamine H3 receptor [22]) was 0.007 µM and the Ki (Histamine H3 receptor [38]) was 0.066 µM.
In the case of `C[C@H](COc1ccc(C2=NNC(=O)C3CC23)cc1)CN1CCC[C@H]1C` (mixture of isomers), the clearance [44] is reported as 19 mL/min/kg, the half-life [2] is reported as > 40 min and the half-life [13] is reported as > 40 min. For the same compound, the half-life [45] was > 40 min, the half-life [46] was 108 min and the IC50 (Cytochrome P450 1A2) was > 30 µM. For the same compound, the IC50 (Cytochrome P450 3A4) was > 30 µM, the Ki (Histamine H3 receptor [22]) was 0.0023 µM and the bioavailability [47] was > 25%. The IC50 (Cytochrome P450 2C19) was > 30 µM, the IC50 (Cytochrome P450 2D6) was > 30 µM and the half-life [29] was > 40 min. The IC50 (Cytochrome P450 2C9) was > 30 µM, the Ki (Histamine H3 receptor [38]) was 0.0098 µM and the half-life [42] was > 40 min.
